Results published in patent US10774064B2 (Cadent Therapeutics, Inc., priority 2016, dated 2020).

Biological target: T1, small-conductance Ca2+-activated K+ channels (SK channels, subtype 2) (Homo sapiens, UniProt Q9H2S1)
T1 construct: expressed in transfected cells; host or cells: HEK293
Test: whole-cell patch-clamp of ionic current through SK2 channels in HEK293 cells (SC100)
Assay type: cell-based
Details: whole-cell patch-clamp, HEK293 cells expressing SK2 channels; concentration that increases the basal current by 100%
Summary of the method: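 SC100, the concentration doubling basal current (a 100% increase), was taken from SK2 currents recorded by whole-cell patch-clamp in SK2-expressing HEK293 cells.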

SC100 (μM), ++ (++ means 200 nM-1000 nM):
Cc1csc(-c2nc(NC3CCC(F)(F)CC3)cc(C(C)F)n2)n1 (stereo not drawn) [IN10876-092-P1, N-(4,4-difluorocyclohexyl)-6-(1-fluoroethyl)-2-(4-methylthiazol-2-yl)pyrimidin-4-amine]
Cc1csc(-c2nc(NC3CCC(F)(F)CC3)cc(N3CCN(C)CC3)n2)n1 [IN10880-014-P1]
CCC1CN(c2cc(NC3CCC(F)(F)CC3)nc(-c3nc(C)cs3)n2)CCO1 (stereo not drawn) [IN10880-018-P1]
CC(=O)NC1CCN(c2cc(NC3CCC(F)(F)CC3)nc(-c3nc(C)cs3)n2)CC1 [IN10880-032-P1]
Cc1csc(-c2nc(NC3CCC(F)(F)CC3)cc(N3CCOC(CNC(=O)OC(C)(C)C)C3)n2)n1 (stereo not drawn) [IN10880-033-P1]
Cc1csc(-c2nc(NC3CCC(F)(F)CC3)cc(C(C)O)n2)n1 (stereo not drawn) [IN10880-035-P1, 1-(6-((4,4-difluorocyclohexyl)amino)-2-(4-methylthiazol-2-yl)pyrimidin-4-yl) ethan-1-ol]
Cc1csc(-c2nc(NC3CCCCC3)cc(C(C)O)n2)n1 (stereo not drawn) [IN10880-093-P1]
Cc1csc(-c2nc(NC3CCC(F)(F)CC3)cc(N3CCCCC3)n2)n1 [IN10881-021.P1]
Cc1csc(-c2nc(NC3CCC(F)(F)CC3)cc(N3CCCC(O)C3)n2)n1 (stereo not drawn) [IN10881-023-P2]
Cc1csc(-c2nc(NC3CCC(F)(F)CC3)cc(N3CCOC(CO)C3)n2)n1 (stereo not drawn) [IN10881-025-P1]
Cc1csc(-c2nc(NC3CCC(F)(F)CC3)cc(N3CCOCC3CO)n2)n1 (stereo not drawn) [IN10881-027-P1]
Cc1csc(-c2nc(NC3CCC(F)(F)CC3)cc(N3CCC(CO)C3)n2)n1 (stereo not drawn) [IN10882-020-P1]

SC100 (μM), +++ (+++ means <200 nM):
Cc1csc(-c2nc(NC3CCC(F)(F)CC3)cc(N3CCC(N(C)C)CC3)n2)n1 [IN10881-020.P1]
CCN(CC)CC1CN(c2cc(NC3CCC(F)(F)CC3)nc(-c3nc(C)cs3)n2)CCO1 (stereo not drawn) [IN10881-092-P1]

SC100 (μM), + (+ means >1 uM):
CCOC(C)c1cc(NC2CCC(F)(F)CC2)nc(-n2ccc(C)n2)n1 (stereo not drawn) [IN10876-061-P1, N-(4,4-difluorocyclohexyl)-6-(1-ethoxyethyl)-2-(3-methyl-1H-pyrazol-1-yl)pyrimidin-4-amine]
Cc1ccn(-c2nc(NC3CCC(F)(F)CC3)cc(C(C)(F)F)n2)n1 [IN10876-069-P1, N-(4,4-difluorocyclohexyl)-6-(1,1-difluoroethyl)-2-(3-methyl-1H-pyrazol-1-yl)pyrimidin-4-amine]
Cc1ccn(-c2nc(NC3CCC(F)(F)CC3)cc(C(C)F)n2)n1 (stereo not drawn) [IN10876-080-P1, N-(4,4-difluorocyclohexyl)-6-(1-fluoroethyl)-2-(3-methyl-1H-pyrazol-1-yl)pyrimidin-4-amine]
Cc1csc(-c2nc(NC3CCC(F)(F)CC3)cc(C(C)(F)F)n2)n1 [IN10876-082-P1, N-(4,4-difluorocyclohexyl)-6-(1,1-difluoroethyl)-2-(4-methylthiazol-2-yl)pyrimidin-4-amine]
Cc1csc(-c2nc(C#N)cc(NC3CCC(F)(F)CC3)n2)n1 [IN10880-029-P1]
Cc1ccn(-c2nc(NCC3CCCO3)cc(C(C)O)n2)n1 (stereo not drawn) [IN10880-055-P1]
Cc1ccn(-c2nc(NC(C)C)cc(C(C)O)n2)n1 (stereo not drawn) [IN10880-056-P1]
Cc1ccn(-c2nc(NCC3CCOC3)cc(C(C)O)n2)n1 (stereo not drawn) [IN10880-058-P1]
Cc1ccn(-c2nc(NC3CCCCC3C)cc(C(C)O)n2)n1 (stereo not drawn) [IN10880-059-P1]
Cc1ccn(-c2nc(NC3CCCC(C(F)(F)F)C3)cc(C(C)O)n2)n1 (stereo not drawn) [IN10880-062-P1]
Cc1ccn(-c2nc(C(C)O)cc(N(C)C3CCCCC3)n2)n1 (stereo not drawn) [IN10880-064-P1]
Cc1ccn(-c2nc(NC(C)(C)C)cc(C(C)O)n2)n1 (stereo not drawn) [IN10880-065-P1]
Cc1csc(-c2nc(C(C)O)cc(N(C)C3CCCCC3)n2)n1 (stereo not drawn) [IN10880-084-P1]
Cc1csc(-c2nc(NC3CCCC(C(F)(F)F)C3)cc(C(C)O)n2)n1 (stereo not drawn) [IN10880-085-P1]
CC(=O)c1cc(NC2CCC(F)(F)CC2)nc(-n2nc(C)cc2C)n1 [IN10881-040-P1, 1-(6-((4,4-difluorocyclohexyl)amino)-2-(3,5-dimethyl-1H-pyrazol-1-yl)pyrimidin-4-yl)ethan-1-one]
Cc1ccn(-c2nc(C(C)O)cc(N3CCCC4CCCCC43)n2)n1 (stereo not drawn) [IN10881-054-P1]
Cc1ccn(-c2nc(C(C)O)cc(N3CCCCCC3)n2)n1 (stereo not drawn) [IN10881-058-P1]
Cc1ccn(-c2nc(C(C)O)cc(N(C)C3CCCCC3C)n2)n1 (stereo not drawn) [IN10881-059-P1]
Cc1ccn(-c2nc(NC3C(C)CCCC3C)cc(C(C)O)n2)n1 (stereo not drawn) [IN10881-060-P1]
Cc1csc(-c2nc(NC3CCC(F)(F)CC3)cc(N(C)C3CC3)n2)n1 [IN10881-090-P1]
Cc1cc(C)n(-c2nc(NC3CCC(F)(F)CC3)nc(N3CCOCC3)n2)n1 [IN10881-098-P1, N-(4,4-difluorocyclohexyl)-4-(3,5-dimethyl-1H-pyrazol-1-yl)-6-morpholino-1,3,5-triazin-2-amine]
COCC1COCCN1c1cc(NC2CCC(F)(F)CC2)nc(-c2nc(C)cs2)n1 (stereo not drawn) [IN10881-099-P1]
Cc1csc(-c2nc(NC3CCC(F)(F)CC3)cc(N3CCCC3)n2)n1 [IN10882-014-P1]
Cc1csc(-c2nc(NC3CCC(F)(F)CC3)cc(NC3COC3)n2)n1 [IN10882-040-P1]
Cc1csc(-c2nc(NC3CCC(F)(F)CC3)cc(N(C)C3COC3)n2)n1 [IN10882-043-P1]
Cc1ccn(-c2nc(C(C)O)cc(N3CCCCC3)n2)n1 (stereo not drawn) [IN10882-055-P1]
Cc1ccn(-c2nc(NC(C)C)cc(N3CCOC(CO)C3)n2)n1 (stereo not drawn) [IN10882-057-P1]
Cc1ccn(-c2nc(N3CCCCCC3)cc(N3CCOC(CO)C3)n2)n1 (stereo not drawn) [IN10882-068-P1]
